We go through one compound from PMC4184574, “Enantioselectivity in the cytochrome P450-dependent conversion of tegafur to 5-fluorouracil in human liver microsomes” (Pharmacology Research & Perspectives, 2013).

Each structure is given as a SMILES string.

Series [1] concerns recombinant human CYP2B6, 2C8, 2C9, 2D6, and 3A4. As to the kind of experiment: 5-FU formation from FT enantiomers by other cDNA-expressed CYP isoforms. It counts as in vitro ADME. To be noted: other isoforms than CYP1A2, 2A6, 2C19, 2E1; FT enantiomers 0.03 mmol/L; 20 pmol CYP/mL. As to the method: (pooled preparations from 20 donors; Kansas City, KS). […] Insect microsomes expressing only NADPH-P450 oxidoreductase and cytochrome b5 were also used as control. These enzymes were stored at −80°C until use.
5-FU formed from FT was subjected to extensive metabolism by dihydropyrimidine dehydrogenase (DPD) contaminating human hepatic preparations. Therefore, a potent DPD inhibitor, CDHP, was always added to avoid the unexpected loss of 5-FU (Ikeda et al. [2000]; Yamamiya et al. [2010]). Incubation mixture for hepatic microsomal metabolism contained FT, microsomes (1 mg protein/mL), 0.1 mmol/L CDHP, and an NADPH-generating system consisting of 1.3 mmol/L β-NADP^+, 3.3 mmol/L glucose-6-phosphate, 3.3 mmol/L magnesium chloride, and 0.4 units glucose-6-phosphate dehydrogenase in 100 mmol/L Tris (pH 7.4). Metabolic reaction by S9 and cytosol (each 2 mg protein/mL) was carried out in 100 mmol/L phosphate (pH 7.4) because TPase requires phosphate ions for catalyzing the reaction. […] The spontaneous degradation of FT to 5-FU was evaluated using enzymes inactivated by heating them at 100°C for 5 min.
Concentration of 5-FU was determined using a LC/MS/MS system. […] For quantification of 5-FU, the calibration curves were linear over the range 2–1000 ng/mL. […]

The next series has as its target T1, CYP2A6 (Homo sapiens, UniProt P11509).
T1 sequence (P11509 1-494): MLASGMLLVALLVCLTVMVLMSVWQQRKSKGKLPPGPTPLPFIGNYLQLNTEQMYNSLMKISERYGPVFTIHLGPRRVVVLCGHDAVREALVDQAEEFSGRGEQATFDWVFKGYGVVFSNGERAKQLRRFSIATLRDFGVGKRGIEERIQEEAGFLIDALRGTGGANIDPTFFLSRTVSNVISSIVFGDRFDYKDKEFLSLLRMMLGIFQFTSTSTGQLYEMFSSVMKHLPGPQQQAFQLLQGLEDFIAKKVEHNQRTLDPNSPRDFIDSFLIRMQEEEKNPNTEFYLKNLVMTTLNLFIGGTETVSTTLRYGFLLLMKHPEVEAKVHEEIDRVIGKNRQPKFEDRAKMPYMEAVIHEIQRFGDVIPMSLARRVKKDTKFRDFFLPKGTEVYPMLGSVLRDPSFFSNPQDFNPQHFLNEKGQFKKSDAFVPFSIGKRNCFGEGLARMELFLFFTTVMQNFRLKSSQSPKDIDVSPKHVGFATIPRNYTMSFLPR
As to the kind of experiment: 5-FU formation from FT enantiomers by cDNA-expressed CYP2A6 (kinetics, velocity, RAF contribution). To be noted: CYP2A6; RAF method; 30 μmol/L. The text has this:
Human hepatic 9000g supernatant (S9) and cytosolic fraction were purchased from XenoTech, LLC. (pooled preparations from 20 donors; Kansas City, KS). Human hepatic microsomes from five individuals (HG32, HH94, HH81, HH74, and HH31), a pooled preparation from 150 donors, and microsomes prepared from insect cell lines expressing CYP1A2, 2A6, 2B6, 2C8, 2C9, 2C19, 2D6, 2E1, and 3A4 were purchased from BD Gentest. Insect microsomes expressing only NADPH-P450 oxidoreductase and cytochrome b5 were also used as control. These enzymes were stored at −80°C until use.
Metabolic reaction by S9 and cytosol (each 2 mg protein/mL) was carried out in 100 mmol/L phosphate (pH 7.4) because TPase requires phosphate ions for catalyzing the reaction. In some cases, insect microsomes expressing recombinant CYP isoforms (20 pmol/mL) were added to the incubation mixtures in either 50, 100 mmol/L phosphate (pH 7.4) or 100 mmol/L Tris (pH 7.4), depending on supplier's recommendation. Microsomal protein concentrations of all cDNA-expressed CYPs were adjusted to 0.5 mg protein/mL by adding control microsomes expressing NADPH-P450 oxidoreductase and cytochrome b5. The reaction for the assay of FT metabolism was initiated by adding the substrate, following preincubation for 5 min at 37°C. After incubation at 37°C, the reaction was stopped by adding three volumes of ice-cold acetonitrile. The incubation times of microsomes, cytosol, and S9 were 15, 15, and 30 min, respectively. After centrifugation, the supernatant was collected and stored at −80°C until the determination of 5-FU. Because a small portion of FT is nonenzymatically converted to 5-FU, the content of 5-FU spontaneously formed was subtracted from total yield obtained after incubation to correct the activity. The spontaneous degradation of FT to 5-FU was evaluated using enzymes inactivated by heating them at 100°C for 5 min.
Concentration of 5-FU was determined using a LC/MS/MS system. The analytical system consisted of a HP1100 liquid chromatograph (Agilent Technologies, CA) coupled with an API4000 triple-quadrupole mass spectrometer (Applied Biosystems, CA) equipped with Turbo V source and ESI interface. Sample separation was performed using an Unison UK-Amino column (2.0 mm i.d. × 100 mm, 3 μm; Imtakt, Kyoto, Japan) at a flow rate of 0.2 mL/min at 40°C. The mobile phase consisted of 10 mmol/L ammonium acetate/acetonitrile 10:90 (v/v). […] For quantification of 5-FU, the calibration curves were linear over the range 2–1000 ng/mL.
Kinetic studies were performed using microsomes from five human livers (HG32, HH94, HH81, HH74, and HH31), cDNA-expressed CYP isoforms, or pooled human hepatic cytosol. In determining kinetic parameters, FT concentration ranged from 0.03 to 10 mmol/L. All reactions were performed in a linear range of 5-FU formation with respect to protein or CYP concentrations and incubation time.
Intrinsic clearance (CLint) was calculated as a ratio of V/S where V and S were the metabolite formation rate and the concentration of a probe substrate for CYP isoform, respectively, when the substrate concentration was well below the Km value. The RAF for each CYP isoform was calculated according to equation (3) (Venkatakrishnan et al. [2000]). [drawing 3] (3) n = 1A2, 2A6, 2C19, or 2E1.
The contribution of CYPn to the metabolism of R- and S-FT at their concentration of 30 μmol/L was subsequently calculated using equation (4). [drawing 4] (4) VCYPn = 5-FU formation rate in cDNA-expressed CYPn.

On the set-up of series [2]: method as in Damle et al. [2001]. The settings on record: after oral administration; ref Damle et al. [2001]; cited from earlier work.

Turning to `O=c1[nH]c(=O)n(C2CCCO2)cc1F` (stereo not drawn) [FT, 5-fluoro-1-(2-tetrahydrofuryl)-2, 4 (1H, 3H)-pyrimidinedione, reference compound], in series [1], the “activity for the enantioselective metabolism of FT (in words)” value is listed as “negligible activity”. The CYP contribution result on CYP2A6 is listed as “over 85%”. The oral bioavailability result in series [2] was “approximately 100%”.
